The assay concerns Pseudomonas aeruginosa FP 1380. The experiment in a line: In vitro antibacterial activity (MIC) by the two-fold agar-plate dilution method. It counts as cell-based. Conditions: test strain Pseudomonas aeruginosa FP 1380, heart infusion agar, incubation at 37° C. for 20 hours; for MIC: FP1380, read-out: MIC (minimal inhibitory concentration). The method, then:
In vitro antibacterial activity was determined by the two-fold agar-plate dilution method as described below.
One loopful of an overnight culture of each test strain in Trypticase-soy broth (10^6 viable cells per ml) was streaked on heart infusion agar (HI-agar) containing graded concentrations of representative test compound, and the minimal inhibitory concentration (MIC) was expressed in μg/ml after incubation at 37° C. for 20 hours.

Molecules are shown by their SMILES. Converted amounts (≈) assume the structure as drawn.

With `Cn1c(N)c(NC(=O)NCCN)c[n+]1CC1=C(C(=O)O)N2C(=O)[C@@H](NC(=O)/C(=N\OC(C)(C)C(=O)O)c3nsc(N)n3)[C@H]2SC1.O=S(=O)([O-])O` [Compound (d), 7β-[(Z)-2-(5-amino-1,2,4-thiadiazol-3-yl)-2-(1-carboxy-1-methylethoxyimino)acetamido]-3-{3-amino-4-[3-(2-aminoethyl)ureido]-2-methyl-1-pyrazolio}methyl-3-cephem-4-carboxylic acid hydrogen sulfate], the MIC is 2 µg/mL.

As for `Cn1c(N)c(NC(=N)N)c[n+]1CC1=C(C(=O)O)N2C(=O)[C@@H](NC(=O)/C(=N\OC(C)(C)C(=O)O)c3nsc(N)n3)[C@H]2SC1.O=S(=O)([O-])O` [Compound (e), 7β-[(Z)-2-(5-amino-1,2,4-thiadiazol-3-yl)-2-(1-carboxy-1-methylethoxyimino)acetamido]-3-(3-amino-4-guanidino-2-methyl-1-pyrazolio)methyl-3-cephem-4-carboxylic acid hydrogen sulfate], the MIC is 1 µg/mL.

As for `CC(C)(O/N=C(\C(=O)N[C@@H]1C(=O)N2C(C(=O)[O-])=C(C[n+]3ccccc3)CS[C@H]12)c1csc(N)n1)C(=O)O` [Ceftazidime, reference compound], the MIC came out at 128 µg/mL (≈ 234 µM).

Consider `Cn1c(N)c(NC(=O)CN)c[n+]1CC1=C(C(=O)O)N2C(=O)[C@@H](NC(=O)/C(=N\OC(C)(C)C(=O)O)c3nsc(N)n3)[C@H]2SC1.O=S(=O)([O-])O` [Compound (c), 7β-[(Z)-2-(5-amino-1,2,4-thiadiazol-3-yl)-2-(1-carboxy-1-methylethoxyimino)acetamido]-3-[3-amino-4-(aminoacetyl)amino-2-methyl-1-pyrazolio]methyl-3-cephem-4-carboxylic acid hydrogen sulfate], for which the MIC stood at 2 µg/mL.

In the case of `Cn1c(N)c(NC(=O)CCN)c[n+]1CC1=C(C(=O)[O-])N2C(=O)[C@@H](NC(=O)/C(=N\OC(C)(C)C(=O)O)c3nsc(N)n3)[C@H]2SC1` [Compound (b), 7β-[(Z)-2-(5-amino-1,2,4-thiadiazol-3-yl)-2-(1-carboxy-1-methylethoxyimino)acetamido]-3-[3-amino-4-(3-aminopropionamido)-2-methyl-1-pyrazolio]methyl-3-cephem-4-carboxylate], the MIC came to 1 µg/mL (≈ 1.53 µM).

With `CC(C)(O/N=C(\C(=O)N[C@@H]1C(=O)N2C(C(=O)[O-])=C(C[n+]3cc(NC(=O)CCN)c4n3CCN4)CS[C@H]12)c1nsc(N)n1)C(=O)O` [Compound (a), 7β-[(Z)-2-(5-amino-1,2,4-thiadiazol-3-yl)-2-(1-carboxy-1-methylethoxyimino)acetamido]-3-[7-(3-aminopropionamido)-2,3-dihydro-5-(1H-imidazo[1,2-b]pyrazolio)]methyl-3-cephem-4-carboxylate], the “MIC (minimal inhibitory concentration)” value was 2 µg/mL (≈ 3.01 µM).

The values are drawn from US7129232B2, “Cephem compounds” (Astellas Pharma Inc., priority 2002, dated 2006).
